Entries after “also recorded” stand apart in the source; their conditions may differ.
Columns and labels:
[1] = tested on: purified complex I membrane from bovine heart; parameters: method as in ImmunoMet, 2018; conditions: ref ImmunoMet, 2018, read-out: mitochondrial OXPHOS inhibition IC50; cited from earlier work
[2] = tested on: protein complex 1; parameters: method as in ImmunoMet, 2018; conditions: study protocol background; ref ImmunoMet, 2018; cited from earlier work
[3] = tested on: Hs746T GC xenograft; parameters: method as in ImmunoMet, 2018; conditions: Hs746T GC xenograft in mice, each compound alone; IM156 10 or 30 mg/kg, Irinotecan 50 or 75 mg/kg; ref ImmunoMet, 2018; cited from earlier work
[4] = tested on: glioblastoma (GSC11); parameters: method as in ImmunoMet, 2018; conditions: glioblastoma animal model, control group 47 days; ref ImmunoMet, 2018; cited from earlier work
[5] = tested on: OXPHOS; parameters: method as in ImmunoMet, 2018; conditions: at the highest concentrations; ref ImmunoMet, 2018; cited from earlier work
[6] = major metabolic organs such as lung, liver, kidney; cited from earlier work
[7] = tested on: SD rats; conditions: 2018, cited from earlier work
[8] = SD rats, 50, 100/75, or 150/100 mg/kg QOD oral gavage; ref ImmunoMet, 2018; cited from earlier work
[9] = presence and absence of activated S9; ref ImmunoMet, 2018; cited from earlier work
[10] = Plasma pharmacokinetics of IM156 in patients
Procedure: PK samples were also obtained on Cycle 1 Day 15 immediately prior to dosing and 2 h after dosing.
③ Method and schedule for administration:
IM156 will be administered in a fasted state (at least 2 hours after
and 1 hour before eating and drinking except water) except at
the single dose stage (described below).
In the single dose stage, IM156 will be administered with a high-
fast of at least 10 hours, subjects should eat a high-fat meal in
20 minutes starting 30 minutes prior to administration of IM156
with 240 mL of water. No food will be eaten for at least 4 hours
after the administration of IM156. Water is allowed as desired
except for one hour before and after the administration of IM156.
Phase 1b: advanced solid tumor or lymphoma
IM156 will be administered at the RP2D and schedule determined during
Phase 1a. The population(s) and dose and schedule of IM156 will be
defined in a protocol amendment.
Methodology This study is a Phase 1 clinical study to determine the MTD and RP2D of
IM156 as a single agent and to explore its safety, tolerability, PK
characteristics, exploratory markers, and preliminary efficacy.
The Phase 1 clinical study consists of two parts, Phase 1a and Phase 1b.
The Phase 1a is conducted to determine the MTD of IM156 as a single
agent. In addition, the safety, tolerability, preliminary efficacy, PK
characteristics, and exploratory markers of IM156 are evaluated in
patients with advanced solid tumors or lymphoma who have failed in the
standard therapies. Approximately 8 cohorts are planned in Phase 1a; the
number of cohorts and the dose and schedule of IM156 to be
administered at each dose levels will be determined by Safety Committee.
The Phase 1b is conducted to confirm the safety and tolerability, to
explore the preliminary efficacy, and to evaluate the exploratory markers
at the RP2D of IM156 in patients with advanced solid tumor or lymphoma.
Pharmacokinetic Evaluation
Pharmacokinetic evaluation on IM156 will be carried out at each dose level in all the patients
enrolled in the Phase 1a and Phase 1b study. Pharmacokinetic evaluation will be performed on
Day 1 and 15 (Day 15 is only for the Phase 1a study) of the first cycle (Cycle 1), and Day 1 of the
second cycle (Cycle 2). Day 1 Cycle 2 will be Day 29. On Day 1 of Cycles 1 and 2, patients may
be hospitalized in the ward where 24-hour monitoring is possible, and blood and urine will be
collected before and after IM156 adminstration for PK evaluation. The drug concentration will be
evaluated whenever analyses of patient samples are feasible during the clinical study. In PK
evaluation, area under the concentration-time curve (AUC) over the time interval from 0
extrapolated to infinity (AUCinf), AUC up to the last measurable concentration (AUC0–last),
maximum plasma drug concentration (Cmax), minimum plasma drug concentration (Cmin), time
taken to reach the maximum concentration (Tmax), terminal phase half life (T1/2), apparent total
clearance of the drug from plasma after oral administration (CL/F), accumulation ratio at steady
state, cumurative amount of unchanged drug excreted into the urine (Ae), renal clearance (CLr),
and so on will be determined and other PK parameters can be added, if necessary.

[11] = 150 mg/kg/dose QOD oral, between Days 8 and 10, ref ImmunoMet
[12] = oral QOD over 27 days (14 doses), ref ImmunoMet
[13] = plasma, Cycle 1 Day 1, 100 mg oral, N = 3
[14] = plasma, Cycle 1 Day 1, 200 mg oral, N = 3
[15] = plasma, Cycle 1 Day 1, 400 mg oral, N = 3
[16] = plasma, Cycle 1 Day 1, 800 mg oral (both regimens combined), N = 6
[17] = plasma, Cycle 1 Day 1, 1200 mg oral (both regimens combined), N = 7
[18] = plasma, Day 27, cohort 1, 100 mg QOD, N = 2
[19] = plasma, Day 27, cohort 2, 200 mg QOD, N = 3
[20] = plasma, Day 27, cohort 3, 400 mg QOD, N = 3
[21] = plasma, Day 27, cohort 4, 800 mg QOD, N = 3
[22] = plasma, Day 27, cohort 5, 1200 mg QOD, N = 3
[23] = plasma, Day 27, cohort 6, 800 mg QD, N = 3
[24] = plasma, Day 27, cohort 7, 1200 mg QD, N = 2
[25] = plasma, Fed 1 (single dose with high-fat meal), 1200 mg oral, N = 3

NC(=Nc1ccc(OC(F)(F)F)cc1)N=C(N)N1CCCC1 [IM156]
IC50 [1]: 2 µM | potency as protein complex 1 inhibitor relative to metformin [2]: ~ 100 times | reduction of tumor volume [3]: ~ 70% | median survival time [4]: 82 days | time to show OXPHOS inhibition [5]: ≤ 20 min | tissue concentrations compared to plasma [6]: 30–80 fold | tolerability ([7]; 50 mg/kg/dose QOD oral gavage, 27 days, ref ImmunoMet): well tolerated | preterminal euthanasia, females [7, 11]: 3/15 | preterminal euthanasia, males [7, 11]: 2/15 | no-observed-adverse-effect level (NOAEL) [7, 12]: 50 mg/kg/dose | severely toxic dose in 10% of the rats (STD10) [7, 12]: 100 mg/kg/dose | dose proportionality of exposure based on AUClast [8]: more than dose-proportional | dose proportionality of exposure based on Cmax [8]: less than dose-proportional | genotoxicity in two in vitro assays [9]: not genotoxic | accumulation of plasma exposure at steady-state ([10]; 800 mg QD, Day 27 vs Day 1): modest accumulation | maximum plasma exposure achieved ([10]; daily doses of 800 mg): ~ 6 μM | dose proportionality of plasma exposure (AUC0-24, Cmax) ([10]; doses ≥ 200 mg): increased dose proportionally; also recorded: increased in a dose proportional manner; also recorded: dose proportionality | AUC0-24 [10, 13]: 482 ± 342 ng·h/mL | Cmax [10, 13]: 0.0387 ± 0.0311 µg/mL | Tmax [10, 13]: 6.67 ± 2.31 h | AUC0-24 [10, 14]: 2980 ± 251 ng·h/mL | Cmax [10, 14]: 0.189 ± 0.041 µg/mL | Tmax [10, 14]: 4.67 ± 3.06 h | AUC0-24 [10, 15]: 4380 ± 3010 ng·h/mL | Cmax [10, 15]: 0.362 ± 0.131 µg/mL | Tmax [10, 15]: 3.33 ± 1.15 h | AUC0-24 [10, 16]: 7520 ± 3820 ng·h/mL | Cmax [10, 16]: 0.829 ± 0.26 µg/mL | Tmax [10, 16]: 2.25 ± 1.47 h | AUC0-24 [10, 17]: 14,100 ± 6970 h*ng/mL | Cmax [10, 17]: 1.1 ± 0.616 µg/mL | Tmax [10, 17]: 5.00 ± 3.00 h | Plasma AUC0-24 ([10]; plasma, Day 1, cohort 4 only, 800 mg QOD): 7.25 ± 3.96 µg·h/mL | Plasma AUC0-24 ([10]; plasma, Day 1, cohort 5 only, 1200 mg QOD): 10.6 ± 4.82 µg·h/mL | Plasma AUC0-24 ([10]; plasma, Day 1, cohort 6 only, 800 mg QD): 7.79 ± 4.53 µg·h/mL | Plasma AUC0-24 ([10]; plasma, Day 1, cohort 7 only, 1200 mg QD): 16.8 ± 7.72 µg·h/mL | mean Tmax values, range over doses ([10]; plasma, Day 27): 1.2 to 4.0 h | AUC0-24 [10, 18]: 1070 ± 330 ng·h/mL | AUC0-48 [10, 18]: 1400 ± 383 ng·h/mL | AUCINF [10, 18]: 1620 ± 473 ng·h/mL | CL/F [10, 18]: 64.5 ± 18.8 L/h | Cmax [10, 18]: 0.109 ± 0.0548 µg/mL | Tmax [10, 18]: 2.50 ± 2.12 h | Vz/F [10, 18]: 1580 ± 291 L | t1/2 [10, 18]: 17.3 ± 1.91 h | AUC0-24 [10, 19]: 4200 ± 1140 ng·h/mL | AUC0-48 [10, 19]: 6010 ± 1810 ng·h/mL | AUCINF [10, 19]: 6180 ± 2220 ng·h/mL | CL/F [10, 19]: 34.6 ± 12.4 L/h | Cmax [10, 19]: 0.272 ± 0.0438 µg/mL | Tmax [10, 19]: 4.00 ± 0.00 h | Vz/F [10, 19]: 837 ± 266 L | t1/2 [10, 19]: 16.9 ± 0.752 h | AUC0-24 [10, 20]: 7630 ± 5410 ng·h/mL | AUC0-48 [10, 20]: 10,900 ± 8770 h*ng/mL | CL/F [10, 20]: 67.8 ± 28.3 L/h | Cmax [10, 20]: 0.53 ± 0.324 µg/mL | Tmax [10, 20]: 4.00 ± 0.00 h | Vz/F [10, 20]: 1160 ± 256 L | t1/2 [10, 20]: 12.4 ± 2.56 h | AUC0-24 [10, 21]: 12,900 ± 9470 h*ng/mL | AUC0-48 [10, 21]: 18,200 ± 14,700 h*ng/mL | AUCINF [10, 21]: 11,200 ± 5740 h*ng/mL | CL/F [10, 21]: 82.4 ± 42.3 L/h | Cmax [10, 21]: 0.949 ± 0.408 µg/mL | Tmax [10, 21]: 1.17 ± 0.764 h | Vz/F [10, 21]: 1650 ± 413 L | t1/2 [10, 21]: 14.9 ± 4.20 h | AUC0-24 [10, 22]: 21,800 ± 3680 h*ng/mL | AUC0-48 [10, 22]: 29,800 ± 4700 h*ng/mL | AUCINF [10, 22]: 33,100 ± 6120 h*ng/mL | CL/F [10, 22]: 36.9 ± 6.83 L/h | Cmax [10, 22]: 1.58 ± 0.0753 µg/mL | Tmax [10, 22]: 3.33 ± 1.15 h | Vz/F [10, 22]: 863 ± 312 L | t1/2 [10, 22]: 15.9 ± 2.90 h | AUC0-24 [10, 23]: 33,600 ± 9780 h*ng/mL | Cmax [10, 23]: 1.87 ± 0.485 µg/mL | Tmax [10, 23]: 4.00 ± 0.00 h | AUC0-24 [10, 24]: 36,300 ± 7550 h*ng/mL | Cmax [10, 24]: 1.98 ± 0.0948 µg/mL | Tmax [10, 24]: 4.00 ± 0.00 h | AUC0-24 [10, 25]: 17,600 ± 12,800 h*ng/mL | Cmax [10, 25]: 1.22 ± 0.91 µg/mL | Tmax [10, 25]: 6.83 ± 5.84 h | mean plasma half-life (t1/2) values, range ([10]; plasma, post dose administration): 12—17 h
